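How tested: cells in 96-well plates exposed to compound for 48 hours at five concentrations. Here, GI50 denotes the concentration required for 50% inhibition of growth. The concentration for full growth arrest is given as TGI.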
Experiments:
Assay in all cases: NCI anticancer screen, dose series, 48 h
786-0 renal = test system: 786-0 renal
A498 renal = test system: A498 renal
A549 NSCLC = test system: A549 NSCLC
ACHN renal = test system: ACHN renal
BT-549 breast = test system: BT-549 breast
CAKI-1 renal = test system: CAKI-1 renal
CCRF-CEM leukemia = test system: CCRF-CEM leukemia
COLO 205 colon = test system: COLO 205 colon
DU-145 prostate = test system: DU-145 prostate
EKVX NSCLC = test system: EKVX NSCLC
HCC-2998 colon = test system: HCC-2998 colon
HCT-116 colon = test system: HCT-116 colon
HCT-15 colon = test system: HCT-15 colon
HL-60(TB) leukemia = test system: HL-60(TB) leukemia
HOP-62 NSCLC = test system: HOP-62 NSCLC
HOP-92 NSCLC = test system: HOP-92 NSCLC
HS 578T breast = test system: HS 578T breast
HT29 colon = test system: HT29 colon
IGROV1 ovarian = test system: IGROV1 ovarian
K-562 leukemia = test system: K-562 leukemia
KM12 colon = test system: KM12 colon
LOX IMVI melanoma = test system: LOX IMVI melanoma
M14 melanoma = test system: M14 melanoma
MALME-3M melanoma = test system: MALME-3M melanoma
MCF7 breast = test system: MCF7 breast
MDA-MB-435 = test system: MDA-MB-435
MDA-MB-468 breast = test system: MDA-MB-468 breast
MOLT-4 leukemia = test system: MOLT-4 leukemia
NCI-H226 lung = test system: NCI-H226 lung
NCI-H23 lung = test system: NCI-H23 lung
NCI-H460 lung = test system: NCI-H460 lung
NCI-H522 lung = test system: NCI-H522 lung
NCI/ADR-RES ovarian = test system: NCI/ADR-RES ovarian
OVCAR-3 ovarian = test system: OVCAR-3 ovarian
OVCAR-4 ovarian = test system: OVCAR-4 ovarian
OVCAR-5 ovarian = test system: OVCAR-5 ovarian
OVCAR-8 ovarian = test system: OVCAR-8 ovarian
PC-3 prostate = test system: PC-3 prostate
RPMI-8226 leukemia = test system: RPMI-8226 leukemia
RXF 393 renal = test system: RXF 393 renal
SF-268 CNS = test system: SF-268 CNS
SF-295 CNS = test system: SF-295 CNS
SF-539 CNS = test system: SF-539 CNS
SK-MEL-28 melanoma = test system: SK-MEL-28 melanoma
SK-MEL-5 melanoma = test system: SK-MEL-5 melanoma
SK-OV-3 ovarian = test system: SK-OV-3 ovarian
SN12C renal = test system: SN12C renal
SNB-19 CNS = test system: SNB-19 CNS
SR leukemia = test system: SR leukemia
SW-620 colon = test system: SW-620 colon
T-47D breast = test system: T-47D breast
TK-10 renal = test system: TK-10 renal
U251 CNS = test system: U251 CNS
UACC-257 melanoma = test system: UACC-257 melanoma
UACC-62 melanoma = test system: UACC-62 melanoma

Q: For N#Cc1c(-c2ccc(F)cc2)nc(SCc2ccc(F)cc2)nc1N1CCNCC1, which GI50 (786-0 renal) is on record?
A: 13.8 µM

Q: And the TGI (786-0 renal)?
A: 29.3 µM

Q: What about the GI50 (A498 renal) of the same compound?
A: 15.3 µM

Q: What about the TGI (A498 renal) of the same compound?
A: 29.8 µM

Q: What about the GI50 (A549 NSCLC) of the same compound?
A: 11.5 µM

Q: What about the TGI (A549 NSCLC) of the same compound?
A: 25 µM

Q: What about the GI50 (ACHN renal) of the same compound?
A: 15 µM

Q: And the TGI (ACHN renal)?
A: 28.5 µM

Q: What about the GI50 (BT-549 breast) of the same compound?
A: 10.7 µM

Q: And the TGI (BT-549 breast)?
A: 23 µM

Q: And the GI50 (CAKI-1 renal)?
A: 15.3 µM

Q: And the TGI (CAKI-1 renal)?
A: 29 µM

Q: What about the GI50 (CCRF-CEM leukemia) of the same compound?
A: 14.8 µM

Q: What about the TGI (CCRF-CEM leukemia) of the same compound?
A: 33.6 µM

Q: And the GI50 (COLO 205 colon)?
A: 1.83 µM

Q: And the TGI (COLO 205 colon)?
A: 3.4 µM

Q: What about the GI50 (DU-145 prostate) of the same compound?
A: 16.8 µM

Q: What about the TGI (DU-145 prostate) of the same compound?
A: 31.3 µM

Q: And the GI50 (EKVX NSCLC)?
A: 13.1 µM

Q: What about the TGI (EKVX NSCLC) of the same compound?
A: 26.4 µM

Q: What about the GI50 (HCC-2998 colon) of the same compound?
A: 2.53 µM

Q: And the TGI (HCC-2998 colon)?
A: 6.27 µM

Q: And the GI50 (HCT-116 colon)?
A: 4.15 µM

Q: And the TGI (HCT-116 colon)?
A: 15.6 µM

Q: And the GI50 (HCT-15 colon)?
A: 11.7 µM

Q: And the TGI (HCT-15 colon)?
A: 24.6 µM

Q: And the GI50 (HL-60(TB) leukemia)?
A: 7.66 µM

Q: What about the TGI (HL-60(TB) leukemia) of the same compound?
A: 24 µM

Q: What about the GI50 (HOP-62 NSCLC) of the same compound?
A: 17 µM

Q: What about the TGI (HOP-62 NSCLC) of the same compound?
A: 33.4 µM

Q: What about the GI50 (HOP-92 NSCLC) of the same compound?
A: 7.64 µM

Q: And the TGI (HOP-92 NSCLC)?
A: 22.1 µM

Q: And the GI50 (HS 578T breast)?
A: 15.6 µM

Q: What about the TGI (HS 578T breast) of the same compound?
A: 34.6 µM

Q: And the GI50 (HT29 colon)?
A: 4.87 µM

Q: And the TGI (HT29 colon)?
A: 17.3 µM

Q: What about the GI50 (IGROV1 ovarian) of the same compound?
A: 15.6 µM

Q: And the TGI (IGROV1 ovarian)?
A: 29.8 µM

Q: What about the GI50 (K-562 leukemia) of the same compound?
A: 3.76 µM

Q: And the TGI (K-562 leukemia)?
A: 17.8 µM

Q: What about the GI50 (KM12 colon) of the same compound?
A: 18 µM

Q: And the TGI (KM12 colon)?
A: 33.6 µM

Q: And the GI50 (LOX IMVI melanoma)?
A: 2.28 µM

Q: What about the TGI (LOX IMVI melanoma) of the same compound?
A: 5.69 µM

Q: What about the GI50 (M14 melanoma) of the same compound?
A: 13.6 µM

Q: What about the TGI (M14 melanoma) of the same compound?
A: 26.8 µM

Q: And the GI50 (MALME-3M melanoma)?
A: 14.7 µM

Q: And the TGI (MALME-3M melanoma)?
A: 28.4 µM

Q: What about the GI50 (MCF7 breast) of the same compound?
A: 6.43 µM

Q: What about the TGI (MCF7 breast) of the same compound?
A: 20.2 µM

Q: What about the GI50 (MDA-MB-435) of the same compound?
A: 16.8 µM

Q: What about the TGI (MDA-MB-435) of the same compound?
A: 31.3 µM

Q: And the GI50 (MDA-MB-468 breast)?
A: 12.4 µM

Q: And the TGI (MDA-MB-468 breast)?
A: 26.2 µM

Q: And the GI50 (MOLT-4 leukemia)?
A: 10.5 µM

Q: What about the TGI (MOLT-4 leukemia) of the same compound?
A: 26 µM

Q: What about the GI50 (NCI-H226 lung) of the same compound?
A: 15.9 µM

Q: What about the TGI (NCI-H226 lung) of the same compound?
A: 35.7 µM

Q: What about the GI50 (NCI-H23 lung) of the same compound?
A: 16 µM

Q: And the TGI (NCI-H23 lung)?
A: 30.4 µM

Q: And the GI50 (NCI-H460 lung)?
A: 14.3 µM

Q: And the TGI (NCI-H460 lung)?
A: 29.4 µM

Q: And the GI50 (NCI-H522 lung)?
A: 13.9 µM

Q: What about the TGI (NCI-H522 lung) of the same compound?
A: 29.9 µM

Q: What about the GI50 (NCI/ADR-RES ovarian) of the same compound?
A: 13.7 µM

Q: What about the TGI (NCI/ADR-RES ovarian) of the same compound?
A: 30.4 µM

Q: And the GI50 (OVCAR-3 ovarian)?
A: 15.5 µM

Q: And the TGI (OVCAR-3 ovarian)?
A: 30.8 µM

Q: And the GI50 (OVCAR-4 ovarian)?
A: 16.5 µM

Q: And the TGI (OVCAR-4 ovarian)?
A: 33.6 µM

Q: And the GI50 (OVCAR-5 ovarian)?
A: 14.5 µM

Q: What about the TGI (OVCAR-5 ovarian) of the same compound?
A: 28 µM

Q: What about the GI50 (OVCAR-8 ovarian) of the same compound?
A: 13.2 µM

Q: And the TGI (OVCAR-8 ovarian)?
A: 30.5 µM

Q: What about the GI50 (PC-3 prostate) of the same compound?
A: 12.5 µM

Q: What about the TGI (PC-3 prostate) of the same compound?
A: 27.7 µM

Q: And the GI50 (RPMI-8226 leukemia)?
A: 6.75 µM

Q: What about the TGI (RPMI-8226 leukemia) of the same compound?
A: 24.6 µM

Q: And the GI50 (RXF 393 renal)?
A: 7.3 µM

Q: What about the TGI (RXF 393 renal) of the same compound?
A: 21.4 µM

Q: What about the GI50 (SF-268 CNS) of the same compound?
A: 14.1 µM

Q: What about the TGI (SF-268 CNS) of the same compound?
A: 30.9 µM

Q: What about the GI50 (SF-295 CNS) of the same compound?
A: 16.6 µM

Q: What about the TGI (SF-295 CNS) of the same compound?
A: 30.9 µM

Q: And the GI50 (SF-539 CNS)?
A: 15.6 µM

Q: What about the TGI (SF-539 CNS) of the same compound?
A: 29 µM

Q: What about the GI50 (SK-MEL-28 melanoma) of the same compound?
A: 16.4 µM

Q: What about the TGI (SK-MEL-28 melanoma) of the same compound?
A: 30.2 µM

Q: What about the GI50 (SK-MEL-5 melanoma) of the same compound?
A: 16.8 µM

Q: What about the TGI (SK-MEL-5 melanoma) of the same compound?
A: 30.5 µM

Q: What about the GI50 (SK-OV-3 ovarian) of the same compound?
A: 16 µM

Q: What about the TGI (SK-OV-3 ovarian) of the same compound?
A: 29.8 µM

Q: And the GI50 (SN12C renal)?
A: 15.3 µM

Q: What about the TGI (SN12C renal) of the same compound?
A: 29 µM

Q: And the GI50 (SNB-19 CNS)?
A: 14.9 µM

Q: And the TGI (SNB-19 CNS)?
A: 29.4 µM

Q: And the GI50 (SR leukemia)?
A: 2.18 µM

Q: And the TGI (SR leukemia)?
A: 5.07 µM

Q: What about the GI50 (SW-620 colon) of the same compound?
A: 5.97 µM

Q: And the TGI (SW-620 colon)?
A: 19.2 µM

Q: And the GI50 (T-47D breast)?
A: 13.8 µM

Q: What about the TGI (T-47D breast) of the same compound?
A: 30.4 µM

Q: What about the GI50 (TK-10 renal) of the same compound?
A: 15 µM

Q: What about the TGI (TK-10 renal) of the same compound?
A: 29.7 µM

Q: What about the GI50 (U251 CNS) of the same compound?
A: 10.3 µM

Q: And the TGI (U251 CNS)?
A: 24.7 µM

Q: And the GI50 (UACC-257 melanoma)?
A: 14.8 µM

Q: And the TGI (UACC-257 melanoma)?
A: 28.7 µM

Q: What about the GI50 (UACC-62 melanoma) of the same compound?
A: 15.9 µM

Q: What about the TGI (UACC-62 melanoma) of the same compound?
A: 29.9 µM
